# Measurements: patent US8017579B2, “Treatment of viral infections” (priority 2003, dated 2011)
# Values joined by “and” are separate entries in the source; they are usually repeats but may differ in a detail not shown here. Identical values can stand only once. Like-named read-outs stand apart in the source and are kept apart here. Ends that are not written are not given here.
# Experiments:
# HSV1 [1] = type: cell-based, herpes simplex virus type 1; conditions: for antiviral activity against HSV1 (in words): HSV1 plaque assay, Vero cells
# Experimental: African Green Monkey Kidney (Vero) cells were maintained in Eagle's minimum essential medium with Earle's salt (EMEM) and supplemented with 10% foetal calf serum (heat-inactivated), 4 mM L-glutamine, and 1% (v/v) nonessential amino acids, plus penicillin and streptomycin (100 IU/ml and 100 μg/ml, respectively) (maintenance medium referred to as 10% EMEM). The cells were incubated at 37° C. in a humidified atmosphere of air with 5% CO2.
# On harvesting, monolayers were washed in phosphate-buffered saline (PBS), and dislodged by incubating with trypsin in PBS for 30 min, before inactivating trypsin by addition of an equal volume of 10% EMEM and centrifuging at 500 g (5 min, 4° C.). Cell pellets were resuspended in 10% EMEM, prior to cell counting and seeding of 24-well plates. For antiviral assays, medium containing only 0.5% FCS was used (referred to as 0.5% EMEM).
# Three separate passages of HSV1 virus were prepared by infecting Vero cells, and preparing semi-pure suspensions of virus from tissue culture supernatant and cell lysates, before freezing aliquots of virus at −85° C. Viral infectivity was assessed by carrying out plaque assays on serial dilutions of thawed aliquots (expressed in pfu/ml).
# Peptides were obtained in lyophilised form from a commercial supplier (AltaBioscience, University of Birmingham or Advanced Biomedical), and were produced at 5 micromole scale. N-terminals were protected by addition of an acetyl group, and the C-terminals were protected by addition of an amide group.
# Small quantities of peptide were weighed in sterile Eppendorf tubes, before addition of sufficient 0.5% EMEM to produce a 1.5 mM stock solution, which was frozen at −20° C. in aliquots.
# (§1) Vero cells were seeded at 125,000 cells per well in 10% EMEM, and were incubated overnight resulting in confluent monolayers. Peptides were diluted in 0.5% EMEM to give 2× final desired concentration, and 100 μl aliquots were arranged on 96-well plates in arrangement to be used for 24-well plate; control wells containing normal 0.5% EMEM were also prepared. Virus stocks (p3) were thawed, and diluted in 0.5% EMEM such that there were around 100 pfu in 100 μl. Each 24-well plate was inoculated separately. Firstly 100 μl of virus stock was added to the peptide or control medium arranged on a 96-well plate. This was incubated at 37° C. for ten minutes before inoculation. Medium was removed from four wells of a 24-well plate containing confluent Vero, and the 200 μl inoculum added to the appropriate well. Once all wells were treated, the 24-well plate was incubated for a further 60-80 minutes. Finally the peptide-containing inoculum was removed, and 1 ml of 1% EMEM containing 1% carboxymethylcellulose was added to each well. Plates were incubated for a further 22 hours, before removal of overlay, and addition of 10% formaldehyde in PBS. After a further one hour incubation, fixative was removed, monolayers washed several times with tap water, and stained with carbol fuchsin solubilised in water. After 30 minutes stain was removed, and plates washed several times with tap water, before being air dried. Plaques were counted using an Olympus IX70 Inverting Microscope, and antiviral effect expressed as a percentage of the control value for each peptide concentration. The IC50 was calculated from plots of inhibitory effect against peptide concentration.
# The methods employed were as described in Examples 1-4 expect peptides were prepared as 400 μM stocks in phosphate buffered saline (PBS).
# HSV1 [2] = test: HSV1 plaque formation in Vero cells (Example 1); type: cell-based, herpes simplex virus type 1
# Experimental: (§2) FIG. 1 and table 1 show typical results for the test for anti-HSV1 activity. The assay involved treating confluent Vero cells in 24-well plates with medium containing virus and varying amounts of peptide for one hour, followed by removal of this inoculum, and addition of viscous ‘overlay’ medium, containing 0.2% high viscosity carboxymethylcellulose. The overlay medium only allows infection of those cells immediately adjacent to an infected cell. After 2 days incubation and then fixation and staining, small patches of infected cells (or ‘plaques’) are visible, which are counted. Each of these corresponds to the infection of a single cell during the one hour inoculation. ApoE141-149dp produced a 40% reduction in plaque number at a concentration of around 20 μM. Note the peptide was only present in the experimental system for 1 hour.
# HSV2 = HSV2 plaque formation in HEp-2 cells (Example 1); type: cell-based, herpes simplex virus type 2; conditions: HSV2, HEp-2 cells
# Experimental: as §2
# FIG. 2 and table 2 show typical results for the test for anti-HSV2 activity. The assay was carried out as for the anti-HSV1 assay, except Hep-2 cells were used rather than Vero cells. ApoE141-149dp produced a 50% reduction in plaque number at a concentration of around 20 μM. Again note that the peptide was only present in the experimental system for 1 hour.
# HIV-1 = conditions: 7 days; for % Decrease in HIV p24 Production, Mean ± sd / % Decrease in HIV p24 Production, Exp. 1-3: U937 cells
# Experimental: The assay was carried out by incubating HIV infected U937 cells in the presence of various levels of peptide for 7 days, followed by assay for levels of the HIV protein p24 in the cells using an Enzyme Linked Immunoabsorbant Assay (ELISA) technique.
# bacteria = conditions: Azuma et al., Peptides, 21: 327-330 (2000); cited from earlier work
# HSV2 clinical isolates = type: cell-based, herpes simplex virus type 2
# Experimental: as §1
# Plaque assays were performed. The methodology was as described in previous Examples for HSV1 plaque assays (including usage of Vero cells) except HSV2 clinical isolates (provided by Prof. Anthony Hart of Liverpool University) were employed instead.
# [3] = 5 μM peptide, untreated mean 152 ± 10.7
substance,measurement,setting,value
Ac-HMLDVMQDHFSRASSIIDEL (N-terminus assumed) [GIN 29],IC50,HSV1 [1],38.5 µM
Ac-RLRARMEEMRLRARMEEM-NH2 (N-terminus and C-terminus assumed) [GIN 15],IC50,HSV1 [1],> 40 µM
"ApoE263-286: peptide from a region of apolipoprotein E that is not involved in HSPG receptor binding (SWFEPLVEDMQRQWAGLVEKVQAA; UniProt P02649 281-304, looked up, fragment)","Plaque number, wells 1-4","HSV1 [2]; 5 μM peptide in inoculum for 1 hour, untreated mean 107 ± 14.2",113 and 119 and 122 and 126
same,"Plaque number, Mean ± sd","HSV1 [2]; 5 μM peptide, untreated mean 107 ± 14.2",120 ± 5.5
same,"Plaque number, Mean ± sd",HSV1 [2]; 10 μM peptide,114 ± 11.1
same,"Plaque number, wells 1-4",HSV1 [2]; 10 μM peptide,116 and 124 and 102
same,"Plaque number, Mean ± sd",HSV1 [2]; 20 μM peptide,127 ± 17.0
same,"Plaque number, wells 1-4",HSV1 [2]; 20 μM peptide,148 and 112 and 133 and 114
same,"Plaque number, Mean ± sd",HSV1 [2]; 30 μM peptide,121 ± 11.2
same,"Plaque number, wells 1-4",HSV1 [2]; 30 μM peptide,134 and 109 and 114 and 125
same,"Plaque number, Mean ± sd",HSV1 [2]; 40 μM peptide,126 ± 11.2
same,"Plaque number, wells 1-4",HSV1 [2]; 40 μM peptide,120 and 113 and 125 and 144
same,"Plaque number, Mean ± sd",HSV2; [3],152 ± 12.0
same,"Plaque number, wells 1-4",HSV2; [3],135 and 160 and 161 and 152
same,"Plaque number, Mean ± sd",HSV2; 10 μM peptide,141 ± 16.1
same,"Plaque number, wells 1-4",HSV2; 10 μM peptide,157 and 121 and 151 and 134
same,"Plaque number, Mean ± sd",HSV2; 20 μM peptide,146 ± 27.3
same,"Plaque number, wells 1-4",HSV2; 20 μM peptide,118 and 150 and 182 and 134
same,"Plaque number, Mean ± sd",HSV2; 30 μM peptide,124 ± 24.2
same,"Plaque number, wells 1-4",HSV2; 30 μM peptide,118 and 117 and 103 and 159
same,"Plaque number, Mean ± sd",HSV2; 40 μM peptide,131 ± 24.2
same,"Plaque number, wells 1-4",HSV2; 40 μM peptide,132 and 144 and 125 and 124
same,reduction in infectivity,"HIV-1; HIV infected U937 cells, 20 μM",20%
same,"% Decrease in HIV p24 Production, Mean ± sd",HIV-1; 10 μM peptide,23.21 ± 12.79%
same,"% Decrease in HIV p24 Production, Mean ± sd",HIV-1; 20 μM peptide,22.77 ± 13.07%
same,"% Decrease in HIV p24 Production, Exp. 1-3",HIV-1; 30 μM peptide,37.94% and 27.83% and 41.78%
same,"% Decrease in HIV p24 Production, Mean ± sd",HIV-1; 30 μM peptide,35.85 ± 7.21%
same,"% Decrease in HIV p24 Production, Mean ± sd",HIV-1; 40 μM peptide,38.87 ± 12.70%
same,"% Decrease in HIV p24 Production, Exp. 1-3",HIV-1; 50 μM peptide,33.36% and 41.45% and 45.66%
same,"% Decrease in HIV p24 Production, Mean ± sd",HIV-1; 50 μM peptide,40.16 ± 6.25%
"ApoE 133-162: peptide derivative of apoE with antibacterial action (Azuma et al.) (LRVRLASHLRKLRKRLLRDADDLQKRLAVY; UniProt P02649 151-180, looked up, fragment)",antibacterial action (in words),bacteria,most effective
GERLRARMEGERLRARME-NH2 (C-terminus assumed) [GIN 14],IC50,HSV1 [1],> 40 µM
same,antiviral activity against HSV1 (in words),HSV1 [1],no antiviral activity
HRWRKRWRKHRWRKRWRK-NH2 (C-terminus assumed) [MU_36],IC50,HSV1 [1],10 µM
HRWRKRWRKWRWRKRWRK-NH2 (C-terminus assumed) [MU_31],IC50,HSV1 [1],7.5 µM
KRWRKRWRKKRWRKRWRK-NH2 (C-terminus assumed) [MU_34],IC50,HSV1 [1],9 µM
KRWRKRWRKWRWRKRWRK-NH2 (C-terminus assumed) [MU_29],IC50,HSV1 [1],7.5 µM
LRKRKRLLRKRKRL-NH2 (C-terminus assumed) [GIN 37],IC50,HSV1 [1],9 µM
same,antiviral activity against HSV1 (in words),HSV1 [1],have antiviral activity
LRKRKRLRKLRKRKRLRK-NH2 (C-terminus assumed) [GIN 38],IC50,HSV1 [1],9 µM
same,antiviral activity against HSV1 (in words),HSV1 [1],have antiviral activity
LRTRKRGRKLRTRKRGRK-NH2 (C-terminus assumed) [GIN 16],IC50,HSV1 [1],22 µM
same,antiviral activity against HSV1 (in words),HSV1 [1],showed antiviral activity
same,antiviral activity against HSV1 (in words),HSV1 [1]; listed as GIN16,appreciable antiviral effect
LRWRKRWRKLRWRKRWRK-NH2 (C-terminus assumed) [MU_35],IC50,HSV1 [1],> 15 µM
LRWRKRWRKWRWRKRWRK-NH2 (C-terminus assumed) [MU_30],IC50,HSV1 [1],7.5 µM
RRWRKRWRKRRWRKRWRK-NH2 (C-terminus assumed) [MU_33],IC50,HSV1 [1],6.5 µM
same,IC50,HSV2 clinical isolates,> 20 µM
RRWRKRWRKWRWRKRWRK-NH2 (C-terminus assumed) [MU_28],IC50,HSV1 [1],7.5 µM
RTRKRGRKRTRKRGRK-NH2 (C-terminus assumed) [GIN 35],IC50,HSV1 [1],9 µM
same,antiviral activity against HSV1 (in words),HSV1 [1],have antiviral activity
RTRKRGRRTRKRGR-NH2 (C-terminus assumed) [GIN 36],IC50,HSV1 [1],9 µM
same,antiviral activity against HSV1 (in words),HSV1 [1],have antiviral activity
RTRKRWRKRTRKRGRK-NH2 (C-terminus assumed) [MU_70],IC50,HSV1 [1],9.5 µM
same,IC50,HSV2 clinical isolates,> 20 µM
RWRKRGRKRWRKRGRK-NH2 (C-terminus assumed) [MU_69],IC50,HSV1 [1],13 µM
RWRKRWRKRWRKRWRK-NH2 (C-terminus assumed) [MU_37],IC50,HSV1 [1],12.5 µM
RWRKRWRKRWRKRWRK-NH2 (C-terminus assumed) [MU_71],IC50,HSV1 [1],16 µM
RWRKRWRKWRWRKRWRK-NH2 (C-terminus assumed) [MU_32],IC50,HSV1 [1],7.5 µM
same,IC50,HSV2 clinical isolates,> 20 µM
RWRKRWRWRKRWRWRKRW-NH2 (C-terminus assumed) [MU_84],IC50,HSV1 [1],10 µM
"apoE 134-155: peptide derivative of apoE tested for antibacterial action (Azuma et al.) (RVRLASHLRKLRKRLLRDADDL; UniProt P02649 152-173, looked up, fragment)",antibacterial action (in words),bacteria,little effect
